The text below walks through data of patent publication US20250051347A1, “BIFUNCTIONAL CHIMERIC HETEROCYCLIC COMPOUND AND USE THEREOF AS ANDROGEN RECEPTOR DEGRADER” (Hinova Pharmaceuticals, Inc., priority 2021, published 2025).

In experiment [1] the target is T1, androgen receptor (AR) splicing variant AR-v7 (Homo sapiens, UniProt P10275).
T1 construct: The degradation activity of compounds on AR-v7 in 22RV1 cells; host or cells: 22RV1 cells
T1 sequence (P10275 1-644 isoform P10275-3): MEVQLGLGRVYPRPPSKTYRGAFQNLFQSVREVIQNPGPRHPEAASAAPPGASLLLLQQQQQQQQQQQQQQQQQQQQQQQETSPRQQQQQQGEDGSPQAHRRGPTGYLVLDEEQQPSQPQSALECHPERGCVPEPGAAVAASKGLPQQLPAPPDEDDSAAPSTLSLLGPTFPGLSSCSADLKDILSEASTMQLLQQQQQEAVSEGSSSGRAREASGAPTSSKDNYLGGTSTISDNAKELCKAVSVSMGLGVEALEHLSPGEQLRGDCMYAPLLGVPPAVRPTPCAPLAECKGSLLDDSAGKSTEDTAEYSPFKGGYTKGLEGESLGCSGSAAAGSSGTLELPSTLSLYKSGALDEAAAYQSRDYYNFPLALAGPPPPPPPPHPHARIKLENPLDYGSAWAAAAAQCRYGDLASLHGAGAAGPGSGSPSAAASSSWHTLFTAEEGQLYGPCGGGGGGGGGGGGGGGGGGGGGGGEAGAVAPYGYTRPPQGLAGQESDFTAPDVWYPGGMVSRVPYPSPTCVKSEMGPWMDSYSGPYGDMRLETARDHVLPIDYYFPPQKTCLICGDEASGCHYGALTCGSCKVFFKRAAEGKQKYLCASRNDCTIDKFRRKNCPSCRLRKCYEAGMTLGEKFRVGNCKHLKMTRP
The experiment in a line: Degradation activity on androgen receptor splicing variant AR-v7 in 22RV1 cells (ELISA). In kind it is cell-based. As to conditions: AR-v7 degradation in 22RV1 cells, 48 h, class symbols. (In general: ELISA stands for enzyme-linked immunosorbent assay.)

[2] abbreviates: Homo sapiens, 22Rv1, 144 h, read-out: 22RV1 IC50 (nM), 22RV1 cells, 6 days culture, CCK-8, OD 450 nm.
Setting [3] is: read-out: 22RV1 IC50, 22RV1 cells, 6 days culture, CCK-8, OD 450 nm.

As usually defined, the IC50 is the point on the concentration scale where inhibition reaches its midpoint. As usually defined, the DC50 is the midpoint of the concentration-degradation curve. Read a high DC50 as a less potent degrader.

Read-outs that look alike come from different tables or passages of the source.

As for `CCC(CC)(c1ccc(Oc2cnc(C(C)O)nc2)cc1)c1ccc(O[C@H]2C[C@H](Nc3ccc4c(c3)C(=O)N(C3CCC(=O)NC3=O)C4=O)C2)cc1` (stereo partly drawn) [Example 131], in the experiment with 22RV1 cells (setting [2]), the half-inhibitory concentration (IC50) was 4 nM. Further, the 50% degradation concentration (DC50) in experiment [1] was under 10 nM.
With `CCC(CC)(c1ccc(Oc2cnc(C(C)=O)nc2)cc1)c1ccc(O[C@H]2C[C@H](Nc3ccc4c(c3)C(=O)N(C3CCC(=O)NC3=O)C4=O)C2)cc1` (stereo partly drawn) [Example 132], in the experiment with 22RV1 cells (setting [2]), the IC50 came out at 5 nM. For the same compound, the 50% degradation concentration (DC50) in experiment [1] was under 10 nM.
`CCC(CC)(c1ccc(Oc2cnc(C(C)O)nc2)cc1)c1ccc(O[C@H]2C[C@@H](Nc3ccc4c(c3)C(=O)N(C3CCC(=O)NC3=O)C4=O)C2)cc1` (stereo partly drawn) [Example 133]: in the experiment with 22RV1 cells (setting [3]), the half-inhibitory concentration (IC50) stood at 9 nM. In experiment [1], this compound registered a DC50 of under 10 nM.
As to `CC(O)c1ncc(Oc2ccc(C3(c4ccc(O[C@H]5C[C@H](Nc6ccc7c(c6)C(=O)N(C6CCC(=O)NC6=O)C7=O)C5)cc4)CCCC3)cc2)cn1` (stereo partly drawn) [Example 134], the half-maximal inhibitory concentration (IC50) in the experiment with 22RV1 cells (setting [2]) was under 1 nM. For the same compound, the DC50 in experiment [1] was under 10 nM.
On the same counts, the results for `CC(=O)c1ncc(Oc2ccc(C3(c4ccc(O[C@H]5C[C@H](Nc6ccc7c(c6)C(=O)N(C6CCC(=O)NC6=O)C7=O)C5)cc4)CCCC3)cc2)cn1` (stereo partly drawn) [Example 135] are 2 nM and under 10 nM.
For `CN1CCN(C(=O)c2noc(COc3ccc(C(C)(C)c4ccc(OCCCNc5ccc6c(c5)C(=O)N(C5CCC(=O)NC5=O)C6=O)cc4)cc3)n2)CC1` (stereo not drawn) [Example 141] the same measures were 85 nM and 11 to 100 nM.
Take `CC(C)(c1ccc(OCCCNc2ccc3c(c2)C(=O)N(C2CCC(=O)NC2=O)C3=O)cc1)c1ccc(OCc2nc(C(=O)N3CCOCC3)no2)cc1` (stereo not drawn) [Example 142, 2-(2,6-dioxopiperidin-3-yl)-5-((3-(4-(2-(4-((3-(morpholine-4-carbonyl)-1,2,4-oxadiazol-5-yl)methoxy)phenyl)propan-2-yl)phenoxy)propyl)amino)isoindolin-1,3-dione]: the IC50 in the experiment with 22RV1 cells (setting [2]) is 61 nM. In experiment [1], the DC50 is 11 to 100 nM.
For `CC(C)(c1ccc(OCCCNc2ccc3c(c2)C(=O)N(C2CCC(=O)NC2=O)C3=O)cc1)c1ccc(OCc2nc(C(N)=O)no2)cc1` (stereo not drawn) [Example 143, 5-((4-(2-(4-(3-((2-(2,6-dioxopiperidin-3-yl)-1,3-dioxoisoindolin-5-yl)amino)propoxy)phenyl)propan-2-yl)phenoxy)methyl)-1,2,4-oxadiazol-3-carbonylamine] the same measures were 160 nM and 11 to 100 nM.
On the same counts, the results for `CC(C)(c1ccc(Oc2nccc(N3CC4(COC4)C3)n2)cc1)c1ccc(O[C@H]2C[C@@H](Nc3ccc4c(c3)C(=O)N(C3CCC(=O)NC3=O)C4=O)C2)cc1` (stereo partly drawn) [Example 155] are 39 nM and under 10 nM.
For `CC(C)(c1ccc(Oc2nccc(N3CC4(COC4)C3)n2)cc1)c1ccc(O[C@H]2C[C@H](Nc3ccc4c(c3)C(=O)N(C3CCC(=O)NC3=O)C4=O)C2)cc1` (stereo partly drawn) [Example 156] the same measures were 10 nM and under 10 nM.
For `CC(C)(c1ccc(Oc2ncnc(N3CC4(COC4)C3)n2)cc1)c1ccc(O[C@H]2C[C@H](Nc3ccc4c(c3)C(=O)N(C3CCC(=O)NC3=O)C4=O)C2)cc1` (stereo partly drawn) [Example 160], in the experiment with 22RV1 cells (setting [2]), the half-inhibitory concentration (IC50) was found to be 8 nM. In addition, in experiment [1], the DC50 is under 10 nM.
As to `CC(C)(O)c1ccnc(Oc2ccc(C(C)(C)c3ccc(O[C@H]4C[C@H](Nc5ccc6c(c5)C(=O)N(C5CCC(=O)NC5=O)C6=O)C4)cc3)cc2)n1` (stereo partly drawn) [Example 161], the 50% inhibitory concentration (IC50) with 22RV1 cells (setting [2]) is 10 nM. The compound also gave a DC50 in experiment [1] of under 10 nM.
Consider `CC(C)(O)c1cncc(Oc2ccc(C(C)(C)c3ccc(O[C@H]4C[C@H](Nc5ccc6c(c5)C(=O)N(C5CCC(=O)NC5=O)C6=O)C4)cc3)cc2)n1` (stereo partly drawn) [Example 162], for which, in the experiment with 22RV1 cells (setting [2]), the half-maximal inhibitory concentration (IC50) is 10 nM. The same compound had a half-maximal degradation concentration (DC50) in experiment [1] of under 10 nM.
For `CC(C)(c1ccc(Oc2cc(-n3nccn3)ccn2)cc1)c1ccc(O[C@H]2C[C@H](Nc3ccc4c(c3)C(=O)N(C3CCC(=O)NC3=O)C4=O)C2)cc1` (stereo partly drawn) [Example 168] the same measures were 18 nM and 11 to 100 nM.
On the same counts, the results for `CC(C)(c1ccc(Oc2cc(-n3ccnn3)ccn2)cc1)c1ccc(O[C@H]2C[C@H](Nc3ccc4c(c3)C(=O)N(C3CCC(=O)NC3=O)C4=O)C2)cc1` (stereo partly drawn) [Example 169] are 10 nM and under 10 nM.
In the case of `CC(C)(c1ccc(Oc2nccc(-n3nccn3)n2)cc1)c1ccc(O[C@H]2C[C@H](Nc3ccc4c(c3)C(=O)N(C3CCC(=O)NC3=O)C4=O)C2)cc1` (stereo partly drawn) [Example 170, 5-(((1r,3r)-3-(4-(2-(4-((4-(2H-1,2,3-triazol-2-yl)pyrimidin-2-yl)oxy)phenyl)propan-2-yl)phenoxy)cyclobutyl)amino)-2-(2,6-dioxopiperidin-3-yl)isoindol-1,3-dione], the IC50 in the experiment with 22RV1 cells (setting [2]) worked out at 9 nM. The same compound had a DC50 in experiment [1] of under 10 nM.
On the same counts, the results for `Cc1nnc(-c2cc(Oc3ccc(C(C)(C)c4ccc(O[C@H]5C[C@H](Nc6ccc7c(c6)C(=O)N(C6CCC(=O)NC6=O)C7=O)C5)cc4)cc3)ccn2)o1` (stereo partly drawn) [Example 172, 2-(2,6-dioxopyridin-3-yl)-5-(((1r,3r)-3-(4-(2-(4-((2-(5-methyl-1,3,4-oxadiazol-2-yl)pyridin-4-yl)oxy)phenyl)propan-2-yl)phenoxy)cyclobutyl)amino) isoindolin-1,3-dione] are 19 nM and under 10 nM.
On the same counts, the results for `Cc1nc(-c2ccnc(Oc3ccc(C(C)(C)c4ccc(O[C@H]5C[C@@H](Nc6ccc7c(c6)C(=O)N(C6CCC(=O)NC6=O)C7=O)C5)cc4)cc3)n2)no1` (stereo partly drawn) [Example 173, 2-(2,6-dioxopiperidin-3-yl)-5-(((1s,3s)-3-(4-(2-(4-((4-(5-methyl-1,2,4-oxadiazol-3-yl)pyrimidin-2-yl)oxy)phenyl)propan-2-yl)phenoxy)cyclobutyl)amino)isoindolin-1,3-dione] are 13 nM and 11 to 100 nM.
For `CCC(CC)(c1ccc(Oc2ccc(C(C)=O)nn2)cc1)c1ccc(O[C@H]2C[C@H](Nc3ccc4c(c3)C(=O)N(C3CCC(=O)NC3=O)C4=O)C2)cc1` (stereo partly drawn) [Example 176, 5-(((1r,3r)-3-(4-(3-(4-((6-acetylpyridazine-3-yl)oxy)phenyl)pentan-3-yl)phenoxy)cyclobutyl)amino)-2-(2,6-dioxopiperidin-3-yl)isoindolin-1,3-dione], the IC50 in the experiment on 22RV1 cells (setting [2]) was found to be 2 nM. The same compound displayed a DC50 in experiment [1] of under 10 nM.
With `CC(=O)c1cnc(Oc2ccc(C3(c4ccc(OC5CC(Nc6ccc7c(c6)C(=O)N(C6CCC(=O)NC6=O)C7=O)C5)cc4)CCCC3)cc2)cn1` (stereo not drawn) [Example 177, 5-(((1r,3r)-3-(4-(1-(4-((5-acetylpyrazin-2-yl)oxy)phenyl)cyclopentyl)phenoxy)cyclobutyl)amino)-2-(2,6-dioxopiperidin-3-yl)isoindolin-1,3-dione], the IC50 in the experiment with 22RV1 cells (setting [3]) was found to be 2 nM. The DC50 in experiment [1] was under 10 nM.
For `C[C@@H](O)c1cnc(Oc2ccc(C3(c4ccc(OC5CC(Nc6ccc7c(c6)C(=O)N(C6CCC(=O)NC6=O)C7=O)C5)cc4)CCCC3)cc2)cn1` (stereo partly drawn) [Example 178, 2-(2,6-dioxopiperidin-3-yl)-5-(((1r,3r)-3-(4-(1-(4-((5-(1-hydroxylethyl)pyrazin-2-yl)oxy)phenyl)cyclopentyl)phenoxy)cyclobutyl)amino) isoindolin-1,3-dione] the same measures were 5 nM and under 10 nM.
